From patent publication US9512107B2, “Therapeutically active compositions and their methods of use” (Agios Pharmaceuticals, Inc., priority 2012, dated 2016) come the findings set out here.

Where a chain is given by its changes, count along the chain named.

One test concerns the target T1, IDH2 R172K (Homo sapiens, UniProt P48735, R172K).
T1 sequence (P48735 40-452 R172K): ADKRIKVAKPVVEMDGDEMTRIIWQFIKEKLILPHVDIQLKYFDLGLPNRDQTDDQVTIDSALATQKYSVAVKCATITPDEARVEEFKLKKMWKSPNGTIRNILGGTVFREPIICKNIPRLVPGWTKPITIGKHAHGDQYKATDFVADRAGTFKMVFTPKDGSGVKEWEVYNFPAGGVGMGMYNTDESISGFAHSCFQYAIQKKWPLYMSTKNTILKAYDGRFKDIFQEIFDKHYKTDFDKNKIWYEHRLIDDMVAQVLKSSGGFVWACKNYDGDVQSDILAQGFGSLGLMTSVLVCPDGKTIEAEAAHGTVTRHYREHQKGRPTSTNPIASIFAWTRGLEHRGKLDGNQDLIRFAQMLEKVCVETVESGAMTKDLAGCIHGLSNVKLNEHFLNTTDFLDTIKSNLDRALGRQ
Kind of test: IDH2 R172K enzymatic assay (NADPH cofactor depletion, diaphorase/resazurin readout). It counts as biochemical. To be noted: read-out: Enz R172K. The gist of the method: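 Test compounds are incubated with the mutant enzyme for one hour at ambient temperature. A substrate mix of 50 μM NADPH plus 6.3 mM α-KG initiates turnover, which proceeds for one hour. Diaphorase and resazurin then halt the reaction by depleting the cofactor and convert the remaining NADPH into a fluorescent signal.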
(In general: Resazurin is reduced to fluorescent resorufin, in cell work by metabolically active cells.)

The subject of test [1] is U87MG pLVX-IDH2 R140Q-neo cells. Kind of test: U87MG pLVX-IDH2 R140Q-neo cell based assay, 2-HG in media by LC-MS at 48 hours. The following applies: Homo sapiens, U-87 MG. The gist of the method:
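U87MG cells stably expressing IDH2 R140Q were seeded overnight, then exposed to compound at 0.2% final DMSO at 37 °C, 5% CO2. 2-HG in the medium was quantified by LC-MS at 48 h. Growth inhibition was read by CellTiter-Glo luminescence at 72 h.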

The target of a further test is T2, IDH2 R140Q (Homo sapiens, UniProt P48735, R140Q).
T2 sequence (P48735 40-452 R140Q): T1 sequence (P48735 40-452 R172K) with R101Q, K133R
Kind of test: IDH2 R140Q enzymatic assay (cofactor depletion, similar format). The following applies: read-out: Enz R140Q. It counts as biochemical.

Consider `CC(C)Nc1nc(Nc2ccnc(C(F)(F)F)c2)nc(-c2cccc(C(C)(F)F)n2)n1` [Compound 582, 6-[6-(1,1-Difluoro-ethyl)-pyridin-2-yl]-N-isopropyl-N′-(2-trifluoromethyl-pyridin-4-yl)-[1,3,5]triazine-2,4-diamine], for which the IC50 is less than 100 nM at IDH2 R172K, less than 100 nM in test [1] and 100 to 1000 nM at IDH2 R140Q.

For the compound `CC1(Nc2nc(Nc3ccnc(C(F)(F)F)c3)nc(-c3cccc(N)n3)n2)CC1` [Compound 692, 6-(6-aminopyridin-2-yl)-N2-(1-methylcyclopropyl)-N4-(2-(trifluoromethyl)pyridin-4-yl)-1,3,5-triazine-2,4-diamine], the IC50 at IDH2 R172K was less than 100 nM; in test [1], less than 100 nM; at IDH2 R140Q, 100 to 1000 nM.

For `Nc1ccnc(-c2nc(NCC3CC3)nc(Nc3cc(F)cc(F)c3)n2)n1` [Compound 478, 6-(4-Amino-pyrimidin-2-yl)-N-cyclopropylmethyl-N′-(3,5-difluoro-phenyl)-[1,3,5]triazine-2,4-diamine], the IC50 is less than 100 nM at IDH2 R172K, less than 100 nM in test [1] and 100 to 1000 nM on IDH2 R140Q.

`CCC(C)CNc1nc(Nc2ccncc2)nc(-c2ccccc2)n1` (stereo not drawn) [Compound 220, N^2-(2-methylbutyl)-6-phenyl-N^4-(pyridin-4-yl)-1,3,5-triazine-2,4-diamine]: the IC50 on IDH2 R172K was 100 to 1000 nM; in test [1], less than 100 nM; at IDH2 R140Q, less than 100 nM.

In the case of `CC(C)OCC(=O)Nc1nc(Nc2ccccc2)nc(-c2ccccc2)n1` [Compound 244, 2-isopropoxy-N-(4-phenyl-6-(phenylamino)-1,3,5-triazin-2-yl)acetamide], the IC50 at IDH2 R172K fell in the range of 100 to 1000 nM; in test [1], 1000 to 10000 nM; on IDH2 R140Q it was 100 to 1000 nM.

In the case of `CC(C)CNc1nc(Nc2ccnc(C(F)(F)F)c2)nc(-c2cccc(N)n2)n1` [Compound 690, 6-(6-aminopyridin-2-yl)-N2-isobutyl-N4-(2-(trifluoromethyl)pyridin-4-yl)-1,3,5-triazine-2,4-diamine], the IC50 on IDH2 R172K is less than 100 nM; in test [1] it was less than 100 nM; at IDH2 R140Q it was 100 to 1000 nM.

As to `CC(Nc1nc(Nc2ccncc2)nc(-c2ccccc2)n1)C(C)(C)C` (stereo not drawn) [Compound 255, N^2-(3,3-dimethylbutan-2-yl)-6-phenyl-N^4-(pyridin-4-yl)-1,3,5-triazine-2,4-diamine], the IC50 is 100 to 1000 nM on IDH2 R172K, less than 100 nM in test [1] and less than 100 nM on IDH2 R140Q.

Turning to `CC(C)Nc1nc(Nc2ccccc2)nc(-c2ccccc2NS(C)(=O)=O)n1` [Compound 109], the values for the IC50 (on IDH2 R172K; in test [1]; at IDH2 R140Q) were 1000 to 10000 nM, 1000 to 10000 nM and 100 to 1000 nM, respectively.

Regarding `c1ccc(Nc2nc(NC3CC3)nc(-c3ccccc3)n2)cc1` [Compound 110], the results for the IC50 (on IDH2 R172K; in test [1]; on IDH2 R140Q) were 100 to 1000 nM, less than 100 nM and less than 100 nM, respectively.

Consider `c1ccc(Nc2nc(NC3CCCCC3)nc(-c3ccccc3)n2)cc1` [Compound 113], for which the IC50 at IDH2 R172K was 100 to 1000 nM; in test [1], less than 100 nM; on IDH2 R140Q, less than 100 nM.

As to `CC(F)(F)c1cccc(-c2nc(NCC3CC3)nc(Nc3ccnc(C(C)(C)C#N)c3)n2)n1` [Compound 618, (4-((4-((cyclopropylmethyl)amino)-6-(6-(1,1-difluoroethyl)pyridin-2-yl)-1,3,5-triazin-2-yl)amino)pyridin-2-yl)-2-methylpropanenitrile], the values for the IC50 (on IDH2 R172K; in test [1]; on IDH2 R140Q) were less than 100 nM, less than 100 nM and 100 to 1000 nM, respectively.

Take `CC(C)(C)Nc1nc(Nc2cc(F)cc(F)c2)nc(-c2cccc(C(C)(F)F)n2)n1` [Compound 585, N2-(tert-butyl)-6-(6-(1,1-difluoroethyl)pyridin-2-yl)-N4-(3,5-difluorophenyl)-1,3,5-triazine-2,4-diamine]: the IC50 at IDH2 R172K was less than 100 nM; in test [1], less than 100 nM; on IDH2 R140Q, 100 to 1000 nM.

Consider `CC(C)Nc1nc(Nc2ccc(Cl)cc2)nc(-c2ccccc2)n1` [Compound 143], for which the IC50 at IDH2 R172K was 100 to 1000 nM; in test [1], 100 to 1000 nM; at IDH2 R140Q it was less than 100 nM.

As for `CCOC(=O)Nc1nc(Nc2ccccc2)nc(-c2ccccc2)n1` [Compound 181, ethyl 4-phenyl-6-(phenylamino)-1,3,5-triazin-2-ylcarbamate], the IC50 on IDH2 R172K is 100 to 1000 nM; in test [1] it was less than 100 nM; on IDH2 R140Q, less than 100 nM.

`COCCNc1nc(Nc2ccccc2)nc(-c2ccccc2)n1` [Compound 225, N^2-(2-methoxyethyl)-N^4,6-diphenyl-1,3,5-triazine-2,4-diamine]: the IC50 on IDH2 R172K is 1000 to 10000 nM; in test [1] it was 100 to 1000 nM; at IDH2 R140Q, less than 100 nM.

As to `CC1(Nc2nc(Nc3ccccc3)nc(-c3ccccc3)n2)COC1` [Compound 176, N^2-(3-methyloxetan-3-yl)-N^4,6-diphenyl-1,3,5-triazine-2,4-diamine], the values for the IC50 (on IDH2 R172K; in test [1]; on IDH2 R140Q) were 100 to 1000 nM, 100 to 1000 nM and less than 100 nM, respectively.

In the case of `CC(C)Nc1nc(Nc2ccnc(C(F)(F)F)c2)nc(-c2cccc(C(N)=O)c2)n1` [Compound 651], the IC50 at IDH2 R172K is 100 to 1000 nM; in test [1] it was less than 100 nM; at IDH2 R140Q, 100 to 1000 nM.

Regarding `CC(C)Nc1nc(Nc2ccccc2)nc(-c2cccnc2)n1` [Compound 114], the IC50 was 1000 to 10000 nM at IDH2 R172K, 1000 to 10000 nM in test [1] and 100 to 1000 nM on IDH2 R140Q.

In the case of `CC(C)Nc1nc(Nc2ccncc2)nc(-c2cccc(Cl)c2)n1` [Compound 185, 6-(3-chlorophenyl)-N^2-isopropyl-N^4-(pyridin-4-yl)-1,3,5-triazine-2,4-diamine], the IC50 at IDH2 R172K is 100 to 1000 nM; in test [1] it was 100 to 1000 nM; at IDH2 R140Q, less than 100 nM.

As for `CC(C)Nc1nc(Nc2ccc(F)nc2)nc(-c2cccc(Cl)n2)n1` [Compound 344, 6-(6-chloropyridin-2-yl)-N^2-(6-fluoropyridin-3-yl)-N^4-isopropyl-1,3,5-triazine-2,4-diamine], the IC50 is less than 100 nM on IDH2 R172K, less than 100 nM in test [1] and 100 to 1000 nM at IDH2 R140Q.

On to `c1ccc(Nc2nc(NC3COC3)nc(-c3ccccc3)n2)cc1` [Compound 175, N^2-(oxetan-3-yl)-N^4,6-diphenyl-1,3,5-triazine-2,4-diamine], for which the IC50 is 100 to 1000 nM at IDH2 R172K, less than 100 nM in test [1] and less than 100 nM at IDH2 R140Q.

On to `COc1cccc(-c2nc(Nc3ccnc(C(F)(F)F)c3)nc(NC3COC3)n2)c1F` [Compound 624, 6-(2-Fluoro-3-methoxy-phenyl)-N-oxetan-3-yl-N′-(2-trifluoromethyl-pyridin-4-yl)-[1,3,5]triazine-2,4-diamine], for which the IC50 is 100 to 1000 nM at IDH2 R172K, less than 100 nM in test [1] and 100 to 1000 nM on IDH2 R140Q.

On to `Fc1cncc(Nc2nc(NC3C4COCC43)nc(-c3cccc(Cl)n3)n2)c1` (stereo not drawn) [Compound 511, 6-(6-Chloro-pyridin-2-yl)-N-(5-fluoro-pyridin-3-yl)-N′-(3-oxa-bicyclo[3.1.0]hex-6-yl)-[1,3,5]triazine-2,4-diamine], for which the IC50 on IDH2 R172K was 100 to 1000 nM; in test [1], less than 100 nM; at IDH2 R140Q, 100 to 1000 nM.

Turning to `CCOc1cc(Nc2nc(NC(C)C)nc(-c3ccccc3)n2)ccn1` [Compound 200, N^2-(2-ethoxypyridin-4-yl)-N^4-isopropyl-6-phenyl-1,3,5-triazine-2,4-diamine], the results for the IC50 (at IDH2 R172K; in test [1]; on IDH2 R140Q) were 100 to 1000 nM, less than 100 nM and less than 100 nM, respectively.

For the compound `CC(C)Nc1nc(Nc2cncc(F)c2)nc(-c2ncccc2F)n1` [Compound 456, N-(5-Fluoro-pyridin-3-yl)-6-(3-fluoro-pyridin-2-yl)-N′-isopropyl-[1,3,5]triazine-2,4-diamine], the IC50 at IDH2 R172K is 100 to 1000 nM; in test [1], less than 100 nM; on IDH2 R140Q, 100 to 1000 nM.

Regarding `COC(C)CNc1nc(Nc2ccnc(C(F)(F)F)c2)nc(-c2cccc(C(F)(F)F)n2)n1` (stereo not drawn) [Compound 524, N-(2-Methoxy-propyl)-6-(6-trifluoromethyl-pyridin-2-yl)-N′-(2-trifluoromethyl-pyridin-4-yl)-[1,3,5]triazine-2,4-diamine], the IC50 at IDH2 R172K is less than 100 nM; in test [1], less than 100 nM; on IDH2 R140Q, 100 to 1000 nM.
